For 20 compounds, DC50 results are on record in patent publication US12226424B2, “Target protein degradation compounds, their anti-tumor use, their intermediates and use of intermediates” (ShanghaiTech University, priority 2018, dated 2025).

Each structure is given as a SMILES string. Bounds are passed on as bounds.

The test system of this test is CDK4/6 protein. The test is described as follows: Western-blot determination of CDK4/6 protein degradation (DC50) in T-47D cells. The settings on record: 24 h drug treatment, read-out: DC50(nM)/T-47D cell line. The test is classed as cell-based, human.
Take `CC(=O)c1c(C)c2cnc(Nc3ccc(N4CCN(C(=O)CCSc5cccc6c5C(=O)N(C5CCC(=O)NC5=O)C6=O)CC4)cn3)nc2n(C2CCCC2)c1=O` (centres unmarked) [SIAIS184086, 4-((3-(4-(6-((6-acetyl-8-cyclopentyl-5-methyl-7-oxo-7,8-dihydropyrido[2,3-d]pyrimidin-2-yl)amino)pyridin-3-yl)piperazin-1-yl)-3-oxopropyl)thio)-2-(2,6-dioxopiperidin-3-yl)isoindoline-1,3-dione]: the DC50 was > 500 nM.

Turning to `CC(=O)c1c(C)c2cnc(Nc3ccc(N4CCN(C(=O)CCCSc5cccc6c5C(=O)N(C5CCC(=O)NC5=O)C6=O)CC4)cn3)nc2n(C2CCCC2)c1=O` (centres unmarked) [SIAIS184087, 4-((4-(4-(6-((6-acetyl-8-cyclopentyl-5-methyl-7-oxo-7,8-dihydropyrido [2,3-d]pyrimidin-2-yl)amino)pyridin-3-yl)piperazin-1-yl)-4-oxobutyl)thio)-2-(2,6-dioxo Piperidin-3-yl)isoindoline-1,3-dione], the DC50 is 1 to 10 nM.

On to `CC(=O)c1c(C)c2cnc(Nc3ccc(N4CCN(C(=O)CCCCSc5cccc6c5C(=O)N(C5CCC(=O)NC5=O)C6=O)CC4)cn3)nc2n(C2CCCC2)c1=O` (centres unmarked) [SIAIS184088, 4-((5-(4-(6-((6-acetyl-8-cyclopentyl-5-methyl-7-oxo-7,8-dihydropyrido[2,3-d]pyrimidin-2-yl)amino)pyridin-3-yl)piperazin-1-yl)-5-oxopentyl)thio)-2-(2,6-dioxopiperidin-3-yl)isoindoline-1,3-dione], for which the DC50 fell in the range of 1 to 10 nM.

`CC(=O)c1c(C)c2cnc(Nc3ccc(N4CCN(C(=O)CCCCCSc5cccc6c5C(=O)N(C5CCC(=O)NC5=O)C6=O)CC4)cn3)nc2n(C2CCCC2)c1=O` (centres unmarked) [SIAIS184089, 4-((6-(4-(6-((6-acetyl-8-cyclopentyl-5-methyl-7-oxo-7,8-dihydropyrido[2,3-d]pyrimidin-2-yl)amino)pyridin-3-yl)piperazin-1-yl)-6-oxohexyl)thio)-2-(2,6-dioxopiperidin-3-yl)isoindoline-1,3-dione]: the DC50 lay in the range of 1 to 10 nM.

With `CC(=O)c1c(C)c2cnc(Nc3ccc(N4CCN(C(=O)CSc5cccc6c5CN(C5CCC(=O)NC5=O)C6=O)CC4)cn3)nc2n(C2CCCC2)c1=O` (centres unmarked) [SIAIS219051, 3-(4-((2-(4-(6-((6-acetyl-8-cyclopentyl-5-methyl-7-oxo-7,8-dihydropyrido[2,3-d]pyrimidin-2-yl)amino)pyridin-3-yl)piperazin-1-yl)-2-oxoethyl)thio)-1-oxoisoindolin-2-yl)piperidine-2,6-dione], the DC50 is < 1 nM.

`CC(=O)c1c(C)c2cnc(Nc3ccc(N4CCN(C(=O)CCSc5cccc6c5CN(C5CCC(=O)NC5=O)C6=O)CC4)cn3)nc2n(C2CCCC2)c1=O` (centres unmarked) [SIAIS219052, 3-(4-((3-(4-(6-((6-acetyl-8-cyclopentyl-5-methyl-7-oxo-7,8-dihydropyrido[2,3-d]pyrimidin-2-yl)amino)pyridin-3-yl)piperazin-1-yl)-3-oxopropyl)thio)-1-oxoisoindolin-2-yl)piperidine-2,6-dione]: the DC50 is < 1 nM.

As for `CC(=O)c1c(C)c2cnc(Nc3ccc(N4CCN(C(=O)CCCSc5cccc6c5CN(C5CCC(=O)NC5=O)C6=O)CC4)cn3)nc2n(C2CCCC2)c1=O` (centres unmarked) [SIAIS219053, 3-(4-((4-(4-(6-((6-acetyl-8-cyclopentyl-5-methyl-7-oxo-7,8-dihydropyrido[2,3-d]pyrimidin-2-yl)amino)pyridin-3-yl)piperazin-1-yl)-4-oxobutyl)thio)-1-oxoisoindolin-2-yl)piperidine-2,6-dione], the DC50 was < 1 nM.

Regarding `CC(=O)c1c(C)c2cnc(Nc3ccc(N4CCN(C(=O)CCCCCSc5cccc6c5CN(C5CCC(=O)NC5=O)C6=O)CC4)cn3)nc2n(C2CCCC2)c1=O` (centres unmarked) [SIAIS219054, 3-(4-((6-(4-(6-((6-acetyl-8-cyclopentyl-5-methyl-7-oxo-7,8-dihydropyrido[2,3-d]pyrimidin-2-yl)amino)pyridin-3-yl)piperazin-1-yl)-6-oxohexyl)thio)-1-oxoisoindolin-2-yl)piperidine-2,6-dione], the DC50 was < 1 nM.

For `CC(=O)c1c(C)c2cnc(Nc3ccc(N4CCN(C(=O)CCCCCCSc5cccc6c5CN(C5CCC(=O)NC5=O)C6=O)CC4)cn3)nc2n(C2CCCC2)c1=O` (centres unmarked) [SIAIS219055, 3-(4-((7-(4-(6-((6-acetyl-8-cyclopentyl-5-methyl-7-oxo-7,8-dihydropyrido[2,3-d]pyrimidin-2-yl)amino)pyridin-3-yl)piperazin-1-yl)-7-oxoheptyl)thio)-1-oxoisoindolin-2-yl)piperidine-2,6-dione], the DC50 was < 1 nM.

With `CC(=O)c1c(C)c2cnc(Nc3ccc(N4CCN(C(=O)COCCOCCSc5cccc6c5C(=O)N(C5CCC(=O)NC5=O)C6=O)CC4)cn3)nc2n(C2CCCC2)c1=O` (centres unmarked) [SIAIS219059, 4-((2-(2-(2-(4-(6-((6-acetyl-8-cyclopentyl-5-methyl-7-oxo-7,8-dihydropyrido[2,3-d]pyrimidin-2-yl)amino)pyridin-3-yl)piperazin-1-yl)-2-oxoethoxy)ethoxy)ethyl)thio)-2-(2,6-dioxopiperidin-3-yl)isoindoline-1,3-dione], the DC50 was in the range of 10 to 50 nM.

Regarding `CC(=O)c1c(C)c2cnc(Nc3ccc(N4CCN(C(=O)COCCOCCOCCSc5cccc6c5C(=O)N(C5CCC(=O)NC5=O)C6=O)CC4)cn3)nc2n(C2CCCC2)c1=O` (centres unmarked) [SIAIS219060, 4-((2-(2-(2-(2-(4-(6-((6-acetyl-8-cyclopentyl-5-methyl-7-oxo-7,8-dihydropyrido[2,3-d]pyrimidin-2-yl)amino)pyridin-3-yl)piperazin-1-yl)-2-oxoethoxy)ethoxy)ethoxy)ethyl)thio)-2-(2,6-dioxopiperidin-3-yl)isoindoline-1,3-dione], the DC50 was in the range of 1 to 10 nM.

Regarding `CC(=O)c1c(C)c2cnc(Nc3ccc(N4CCN(C(=O)COCCOCCOCCOCCSc5cccc6c5C(=O)N(C5CCC(=O)NC5=O)C6=O)CC4)cn3)nc2n(C2CCCC2)c1=O` (centres unmarked) [SIAIS219061, 4-((14-(4-(6-((6-acetyl-8-cyclopentyl-5-methyl-7-oxo-7,8-dihydropyrido[2,3-d]pyrimidin-2-yl)amino)pyridin-3-yl)piperazin-1-yl)-14-oxo-3,6,9,12-tetraoxatetradecyl)thio)-2-(2,6-dioxopiperidin-3-yl)isoindoline-1,3-dione], the DC50 is 1 to 10 nM.

Consider `CC(=O)c1c(C)c2cnc(Nc3ccc(N4CCN(C(=O)COCCOCCOCCOCCOCCSc5cccc6c5C(=O)N(C5CCC(=O)NC5=O)C6=O)CC4)cn3)nc2n(C2CCCC2)c1=O` (centres unmarked) [SIAIS219062, 4-((17-(4-(6-((6-acetyl-8-cyclopentyl-5-methyl-7-oxo-7,8-dihydropyrido[2,3-d]pyrimidin-2-yl)amino)pyridin-3-yl)piperazin-1-yl)-17-oxo-3,6,9,12,15-pentaoxaheptadecyl)thio)-2-(2,6-dioxopiperidin-3-yl)isoindoline-1,3-dione], for which the DC50 was in the range of 1 to 10 nM.

Turning to `CC(=O)c1c(C)c2cnc(Nc3ccc(N4CCN(CCSc5cccc6c5C(=O)N(C5CCC(=O)NC5=O)C6=O)CC4)cn3)nc2n(C2CCCC2)c1=O` (centres unmarked) [SIAIS219063, 4-((2-(4-(6-((6-acetyl-8-cyclopentyl-5-methyl-7-oxo-7,8-dihydropyrido[2,3-d]pyrimidin-2-yl)amino)pyridin-3-yl)piperazin-1-yl)ethyl)thio)-2-(2,6-dioxopiperidin-3-yl)isoindoline-1,3-dione], the DC50 is < 1 nM.

As to `CN(C)C(=O)c1cc2cnc(Nc3ccc(N4CCN(C(=O)CSc5cccc6c5CN(C5CCC(=O)NC5=O)C6=O)CC4)cn3)nc2n1C1CCCC1` (centres unmarked) [SIAIS219086, 7-cyclopentyl-2-((5-(4-(2-((2-(2,6-dioxopiperidin-3-yl)-1-oxoisoindolin-4-yl)thio)acetyl)piperazin-1-yl)pyridin-2-yl)amino)-N,N-dimethyl-7H-pyrrolo[2,3-d]pyrimidine-6-carboxamide], the DC50 was < 1 nM.

In the case of `CN(C)C(=O)c1cc2cnc(Nc3ccc(N4CCN(C(=O)CCSc5cccc6c5CN(C5CCC(=O)NC5=O)C6=O)CC4)cn3)nc2n1C1CCCC1` (centres unmarked) [SIAIS219087, 7-cyclopentyl-2-((5-(4-(3-((2-(2,6-dioxopiperidin-3-yl)-1-oxoisoindolin-4-yl)thio)propanoyl)piperazin-1-yl)pyridin-2-yl)amino)-N,N-dimethyl-7H-pyrrolo[2,3-d]pyrimidine-6-carboxamide], the DC50 was < 1 nM.

In the case of `CN(C)C(=O)c1cc2cnc(Nc3ccc(N4CCN(C(=O)CCCSc5cccc6c5CN(C5CCC(=O)NC5=O)C6=O)CC4)cn3)nc2n1C1CCCC1` (centres unmarked) [SIAIS219088, 7-cyclopentyl-2-((5-(4-(4-((2-(2,6-dioxopiperidin-3-yl)-1-oxoisoindolin-4-yl)thio)butanoyl)piperazin-1-yl)pyridin-2-yl)amino)-N,N-dimethyl-7H-pyrrolo[2,3-d]pyrimidine-6-carboxamide], the DC50 was in the range of 1 to 10 nM.

On to `CN(C)C(=O)c1cc2cnc(Nc3ccc(N4CCN(C(=O)CCCCSc5cccc6c5CN(C5CCC(=O)NC5=O)C6=O)CC4)cn3)nc2n1C1CCCC1` (centres unmarked) [SIAIS219089, 7-cyclopentyl-2-((5-(4-(5-((2-(2,6-dioxopiperidin-3-yl)-1-oxoisoindolin-4-yl)thio)pentanoyl)piperazin-1-yl)pyridin-2-yl)amino)-N,N-dimethyl-7H-pyrrolo[2,3-d]pyrimidine-6-carboxamide], for which the DC50 lay in the range of 1 to 10 nM.

For `CN(C)C(=O)c1cc2cnc(Nc3ccc(N4CCN(C(=O)CCCCCSc5cccc6c5CN(C5CCC(=O)NC5=O)C6=O)CC4)cn3)nc2n1C1CCCC1` (centres unmarked) [SIAIS219090, 7-cyclopentyl-2-((5-(4-(6-((2-(2,6-dioxopiperidin-3-yl)-1-oxoisoindolin-4-yl)thio)hexanoyl)piperazin-1-yl)pyridin-2-yl)amino)-N,N-dimethyl-7H-pyrrolo[2,3-d]pyrimidine-6-carboxamide], the DC50 was in the range of 0.2 to 1 nM.

As for `CN(C)C(=O)c1cc2cnc(Nc3ccc(N4CCN(C(=O)CCCCCCSc5cccc6c5CN(C5CCC(=O)NC5=O)C6=O)CC4)cn3)nc2n1C1CCCC1` (centres unmarked) [SIAIS219091, 7-cyclopentyl-2-((5-(4-(7-((2-(2,6-dioxopiperidin-3-yl)-1-oxoisoindolin-4-yl)thio)heptanoyl)piperazin-1-yl)pyridin-2-yl)amino)-N,N-dimethyl-7H-pyrrolo[2,3-d]pyrimidine-6-carboxamide], the DC50 was < 1 nM.
